# Measurements reported in patent US11834443B2, “Crystalline form of the compound (s)-3-{4-[5-(2-cyclopentyl-6-methoxy-pyridin-4-yl)-[1,2,4]oxadiazol-3-yl]-2-ethyl-6-methyl-phenoxy}-propane-1,2-diol” (Idorsia Pharmaceuticals Ltd, priority 2015, dated 2023).
# Assays:
# Aqueous solubility = format: physicochemical; settings: in water
# [1] = Gravimetric vapour sorption (GVS) analysis, hygroscopicity; format: physicochemical; settings: mass change between 40% and 80% relative humidity, first adsorption scan, 25° C.
# Procedure: Gravimetric Vapour Sorption (GVS) Analysis:
# Measurements were performed simultaneously for the COMPOUND in the crystalline form A, B, and C on a multi sample instrument SPS-100n (Projekt Messtechnik, Ulm, Germany) operated in stepping mode at 25° C.
solubility (Aqueous solubility) [µg/mL],hygroscopic classification (European Pharmacopeia Technical Guide) [1],mass gain [1],SMILES
~0.06,–,–,"CCc1cc(-c2noc(-c3cc(OC)nc(C4CCCC4)c3)n2)cc(C)c1OC[C@@H](O)CO [COMPOUND, (S)-3-{4-[5-(2-cyclopentyl-6-methoxy-pyridin-4-yl)-[1,2,4]oxadiazol-3-yl]-2-ethyl-6-methyl-phenoxy}-propane-1,2-diol]"
–,Non-hygroscopic,less than 0.2%,"CCc1cc(-c2noc(-c3cc(OC)nc(C4CCCC4)c3)n2)cc(C)c1OC[C@@H](O)CO [Form A, (S)-3-{4-[5-(2-cyclopentyl-6-methoxy-pyridin-4-yl)-[1,2,4]oxadiazol-3-yl]-2-ethyl-6-methyl-phenoxy}-propane-1,2-diol]"
–,Slightly hygroscopic,0.5%,"CCc1cc(-c2noc(-c3cc(OC)nc(C4CCCC4)c3)n2)cc(C)c1OC[C@@H](O)CO [Form B, (S)-3-{4-[5-(2-cyclopentyl-6-methoxy-pyridin-4-yl)-[1,2,4]oxadiazol-3-yl]-2-ethyl-6-methyl-phenoxy}-propane-1,2-diol]"
–,Slightly hygroscopic,0.8%,"CCc1cc(-c2noc(-c3cc(OC)nc(C4CCCC4)c3)n2)cc(C)c1OC[C@@H](O)CO [Form C, (S)-3-{4-[5-(2-cyclopentyl-6-methoxy-pyridin-4-yl)-[1,2,4]oxadiazol-3-yl]-2-ethyl-6-methyl-phenoxy}-propane-1,2-diol]"
